Series [1] deals with Free fatty acid receptor 1 (Homo sapiens, UniProt O14842). Kind of series: Agonist activity at human GPR40 expressed in HEK293 cells by Fluo4-AM dye based intracellular calcium flux assay. The class given is functional, cell-based.
Series [2] in a line: Inhibition of bile acid efflux in Sprague-Dawley rat hepatocytes assessed as decrease in biliary excretion index incubated for 15 mins followed by compound washout for 15 mins and subsequent addition of compounds with d8-TCA measured after 15 mins by LC-MS/MS analysis. Type of series: toxicity, cell-based, Hepatocyte. The settings on record: 0.5 h, at 5 to 25 µM, dose 5-25 µM, time 30 min.

In series [3] the target is GPR40-Galpha16 (Homo sapiens, UniProt O14842+P30679). Kind of series: Agonist activity at human GPR40/Galpha-16 expressed in HEK293 cells by Fluo4-AM dye based intracellular calcium flux assay. The class given is cell-based. In general terms: Calcium flux is commonly read through the fluorescence of an indicator in the cells.
In series [4] the test system is Hepatocyte. The series can be described thus: Disruption of plasma membrane integrity in rat primary hepatocytes assessed as LDH release in cytosol at 100 uM incubated for 24 hrs by absorbance based assay. The class given is toxicity, cell-based.
A short description of series [5]: Half life in Sprague-Dawley rat at 1 mg/kg, iv by LC-MS analysis. To be noted: in vivo. Type of series: ADME, organism-based.
Series [6] is described as follows: AUC (0 to t) in Sprague-Dawley rat at 1 mg/kg, iv by LC-MS analysis. Further details: dose 1 mg/kg, route iv; call rule not given here. Type of series: ADME, organism-based. The settings on record: in vivo.
Series [7] concerns Hepatocyte. The series can be described thus: Cytotoxicity against human primary hepatocytes assessed as cell viability at 1 to 100 uM incubated for 24 hrs by WST-1 assay. The class given is toxicity, cell-based. The settings on record: dose 1-100 µM. For orientation: Tetrazolium assays rely on reduction of a dye to a coloured formazan, in cell work by metabolically active cells.

A short description of series [8]: Cmax in Sprague-Dawley rat at 10 mg/kg, po by LC-MS analysis. Further details: dose 10 mg/kg, route po. Type of series: ADME, organism-based. To be noted: in vivo.
The nature of series [9]: AUC (0 to t) in Sprague-Dawley rat at 10 mg/kg, po by LC-MS analysis. Type of series: ADME, organism-based. Further details: dose 10 mg/kg, route po. To be noted: in vivo.
A short description of series [10]: MRTlast in Sprague-Dawley rat at 1 mg/kg, iv by LC-MS analysis. The class given is ADME, organism-based. The settings on record: in vivo.
A short description of series [11]: MRTlast in Sprague-Dawley rat at 10 mg/kg, po by LC-MS analysis. The class given is ADME, organism-based. The settings on record: in vivo.
The subject of series [12] is Hepatocyte. The series can be described thus: Disruption of plasma membrane integrity in human primary hepatocytes assessed as LDH release in cytosol upto 100 uM incubated for 24 hrs by absorbance based assay. Type of series: toxicity, cell-based. For orientation: Release of lactate dehydrogenase indicates damage to the cell membrane.
Series [13] in a line: Metabolic stability in human liver microsomes assessed as intrinsic clearance. The class given is ADME, Microsome.
A short description of series [14]: Metabolic stability in human liver microsomes assessed as half life. Type of series: ADME, Microsome.
The nature of series [15]: Cmax in Sprague-Dawley rat at 1 mg/kg, iv by LC-MS analysis. Type of series: ADME, organism-based. Further details: dose 1 mg/kg, route iv. To be noted: in vivo.
Series [16] in a line: Tmax in Sprague-Dawley rat at 10 mg/kg, po by LC-MS analysis. Type of series: ADME, organism-based. The settings on record: in vivo.
Series [17] is described as follows: Half life in Sprague-Dawley rat at 10 mg/kg, po by LC-MS analysis. The class given is ADME, organism-based. The settings on record: in vivo.
Series [18] in a line: Metabolic stability in rat liver microsomes assessed as half life. Type of series: ADME, Microsome.
A short description of series [19]: Oral bioavailability in Sprague-Dawley rat […] by LC-MS analysis. Type of series: ADME, organism-based. To be noted: in vivo.
Series [20] is described as follows: Metabolic stability in rat liver microsomes assessed as intrinsic clearance. The class given is ADME, Microsome. To be noted: read-out: CLH.

The structures appear in SMILES notation.

Results on 14 molecules are retold here after ChEMBL document CHEMBL5346928, “Discovery of orally effective and safe GPR40 agonists by incorporating a chiral, rigid and polar sulfoxide into β-position to the carboxylic acid” (Eur J Med Chem, 2023).

Free fatty acid receptor 1, sequence (O14842 whole entry): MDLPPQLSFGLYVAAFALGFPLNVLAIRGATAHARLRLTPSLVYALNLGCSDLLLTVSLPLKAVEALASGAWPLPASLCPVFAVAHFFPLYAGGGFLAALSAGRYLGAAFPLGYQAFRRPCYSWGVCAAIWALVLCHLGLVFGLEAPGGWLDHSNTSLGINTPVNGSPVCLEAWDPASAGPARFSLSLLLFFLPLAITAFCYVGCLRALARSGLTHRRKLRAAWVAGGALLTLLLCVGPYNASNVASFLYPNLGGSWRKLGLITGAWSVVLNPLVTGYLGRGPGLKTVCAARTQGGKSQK
GPR40-Galpha16, sequence (O14842 whole entry): as above
GPR40-Galpha16, sequence (P30679 whole entry): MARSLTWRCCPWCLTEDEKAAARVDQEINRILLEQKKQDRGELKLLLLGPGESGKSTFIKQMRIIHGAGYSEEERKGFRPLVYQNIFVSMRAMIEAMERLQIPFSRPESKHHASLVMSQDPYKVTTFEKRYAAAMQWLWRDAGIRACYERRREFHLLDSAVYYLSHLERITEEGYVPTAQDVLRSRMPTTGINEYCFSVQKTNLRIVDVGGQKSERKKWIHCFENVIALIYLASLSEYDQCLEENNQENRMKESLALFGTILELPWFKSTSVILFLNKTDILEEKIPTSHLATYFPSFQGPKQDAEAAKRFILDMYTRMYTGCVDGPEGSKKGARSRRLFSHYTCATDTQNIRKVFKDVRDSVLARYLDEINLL

As to `Cc1noc(C)c1-c1cccc(COc2ccc([S+]([O-])CC(=O)O)cc2)c1` (racemic), the EC50 in series [1] came out at 5380 nM.

For `COc1ccc(F)c(-c2cccc(COc3ccc(S(=O)(=O)CC(=O)O)cc3)c2)c1`, the concentration for a half-maximal effect (EC50) in series [1] was found to be 2900 nM.

Consider `Cc1cccc(C)c1-c1cccc(COc2ccc(S(=O)(=O)CC(=O)O)cc2)c1`, for which the “inhibition (INH)” value in series [2] is listed as “Dose-Dependent Effect”. Also, in series [1], the 50% effective concentration (EC50) amounted to 252 nM.

For the molecule `Cc1cncc(C)c1-c1cccc(COc2ccc([S+]([O-])CC(=O)O)cc2)c1` (racemic), the 50% effective concentration (EC50) in [1] was 3100 nM.

`Cc1cc(OCC2(C)COC2)cc(C)c1-c1cccc(COc2ccc([S+]([O-])CC(=O)O)cc2)c1` (racemic): the EC50 in series [1] came to 62.8 nM.

As to `Cc1cccc(C)c1-c1ccc(COc2ccc([S+]([O-])CC(=O)O)cc2)cc1` (racemic), the EC50 in [1] turned out to be 454 nM.

On to `Cc1ccccc1C#Cc1ccc(S(=O)(=O)CC(=O)O)cc1`, for which the EC50 in series [1] was 4880 nM.

With `Cc1cc(OCCCN2CCOCC2)cc(C)c1-c1cccc(COc2ccc([S+]([O-])CC(=O)O)cc2)c1` (racemic), the EC50 in series [1] came to 66.7 nM.

As to `CCCCC/C=C\C/C=C\CCCCCCCC(=O)O` [LINOLEIC ACID], the half-maximal effective concentration (EC50) in series [1] is 6040 nM; in series [3], 10.1 µM.

For the molecule `CC#C[C@H](CC(=O)O)c1ccc(OCc2ccc(-c3cccc(OC)c3)cc2)cc1`, the EC50 in series [3] is 0.0933 µM.

Turning to `Cc1cnccc1-c1cccc(COc2ccc([S+]([O-])CC(=O)O)cc2)c1` (racemic), the EC50 in series [1] is 2000 nM.

Turning to `O=C(O)C[S+]([O-])c1ccc(OCc2cccc(-c3ccncc3Cl)c2)cc1` (racemic), the half-maximal effective concentration (EC50) in series [1] amounted to 1000 nM.

`Cc1cccc(C)c1-c1ccc(COc2ccc(S(=O)(=O)CC(=O)O)cc2)cc1`: in series [1], the EC50 was determined as 716 nM.

For `Cc1cccc(C)c1-c1cccc(COc2ccc([S@@+]([O-])CC(=O)O)cc2)c1`, the Activity entry in series [4] was “Toxic”; in series [7], “Non-Toxic”; in series [12] it was “Non-Toxic”. Moreover, the half-life in [5] is 114 min; in [17], 192 min; in [18], 229 min. In addition, the AUC(0-t) in series [6] amounted to 871 ng·h/mL; in [9], 7620 ng·h/mL. In addition, the Cmax in series [8] was determined as 1230 ng/mL; in series [15], 858 ng/mL. The MRT last came to 1.7 h in [10] and 4.5 h in series [11]. The CLH in [13] worked out at 8.8 µL/min/mg. For the same molecule, the t1/2 in series [14] was 6.3 min. The Tmax in [16] amounted to 2 h. In series [19], this molecule came in with a bioavailability of 87.5%. In addition, the microsomal CLint in [20] was determined as 6.3 µL/min/mg.

The EC50 is the concentration giving half of the maximal effect. The term half-life denotes how long it takes for the measured level to halve. What is called AUC(0-t) is the area under the concentration-time curve up to a stated or last time point. The term Cmax denotes the peak of the concentration-time curve. By MRT last is commonly meant a mean duration of stay, worked out from the concentration-time curve. Usually Tmax stands for the time from dosing to the highest level. Broadly, the bioavailability is dose-corrected exposure relative to a reference, in per cent. A high value points to much systemic uptake.
